These are literature values, as cited in patent publication US5401490A, “Markers of tissue hypoxia” (priority 1989, dated 1995).

Data set [1] relates to hypoxic cell. The conditions noted are these: in vitro; cited from earlier work.
Another data set concerns EMT-6 cells. The settings on record: 50 μM comparison, previously determined value; cited from earlier work.
The conditions of data set [2]: cited from earlier work.
Data set [3] relates to hypoxic cell. The conditions noted are these: in vitro; cited from earlier work. This is another data set of the same source.
The next data set concerns EMT-6 murine tumor cells. The conditions noted are these: hypoxic in vitro; cited from earlier work.
The test system of a further data set is V-79 hamster cells. The settings on record: hypoxic in vitro; cited from earlier work.
The next data set deals with EMT-6 tumors. The settings on record: BALB/C mice; cited from earlier work.

For the compound `O=[N+]([O-])c1nccn1C1OC(CI)C(O)C1O` (centres unmarked) [IAZR, (1-5'-iodo-5'deoxyribofuranosyl)-2-nitroimidazole], in the data set with hypoxic cell [1], the “rates of binding compared with MISO” value is “rates of binding than MISO”. For the same compound, the “sensitizer enhancement ratio (SER)” value in the data set with EMT-6 cells is recorded as 1.6. Also, the “metabolic deiodination in vivo” value in data set [2] is listed as “subject to metabolic deiodination”. The “hypoxic cell toxicity compared with MISO” value in the data set on hypoxic cell [3] was “greater hypoxic cell toxicity”.

As to `COCC(O)Cn1ccnc1[N+](=O)[O-]` (centres unmarked) [MISO, misonidazole], in the data set on EMT-6 cells, the “sensitizer enhancement ratio (SER)” value is recorded as 1.2. Moreover, the “binding to the macromolecular fraction” value with EMT-6 murine tumor cells and with V-79 hamster cells was “selectively bound to the macromolecular fraction” throughout. Also, the “binding to EMT-6 tumors in vivo” value in the data set on EMT-6 tumors is listed as “selectively bound”.
